# In PMC8161391, “Synthesis of Novel Fluorinated Xanthine Derivatives with High Adenosine A2B Receptor Binding Affinity” (Pharmaceuticals, 2021):
# “And” between values parts separate entries of the source, which are not always exact repeats. Equal entries are not always repeated. Where two headings read alike, the source gives them in different places.
# How the values were obtained:
# [1] = biological target: human A2B; parameters: method as in PMID 16759111; settings: determined versus [3H]ZM214385; read-out: Ki (human A2B) ± SEM; cited from earlier work
# [2] = test system: adenosine A2B receptor; settings: cited from earlier work
# [3] = cited from earlier work
# [4] = biological target: T1, human adenosine A2B receptor (Homo sapiens, UniProt P29275); experiment: Competition binding assay, A2B receptor, radioligand [3H]PSB-603; settings: vs [3H]PSB-603, mean ± SEM of three experiments
# T1 construct: host or cells: CHO or HEK cells (membrane preparations)
# T1 sequence (P29275 1-332): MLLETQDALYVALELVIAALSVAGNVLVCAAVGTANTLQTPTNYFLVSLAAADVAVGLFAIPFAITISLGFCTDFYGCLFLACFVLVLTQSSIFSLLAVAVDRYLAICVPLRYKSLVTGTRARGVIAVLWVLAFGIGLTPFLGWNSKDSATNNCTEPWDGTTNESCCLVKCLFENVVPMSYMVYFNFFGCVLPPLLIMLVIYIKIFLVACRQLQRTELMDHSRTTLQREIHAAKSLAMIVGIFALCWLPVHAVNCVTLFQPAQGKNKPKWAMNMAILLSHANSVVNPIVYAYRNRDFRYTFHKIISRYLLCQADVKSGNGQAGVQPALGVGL
# Protocol: (§1) For the two novel fluorinated xanthine derivatives, the binding affinity towards the adenosine receptor subtypes A2B, A2A, A1, and A3 was determined in competition binding assays by incubation of the appropriate standard radioligand with membrane preparations of Chinese hamster ovary (CHO) and human embryonic kidney (HEK) cells, respectively, expressing the corresponding human receptor subtype (Table 2).
# (§2) Membrane preparations of recombinant CHO or HEK cells expressing the respective human adenosine receptor subtype were obtained according to Borrman et al. or purchased from Perkin Elmer (Waltham, MA, USA). Radioligand binding assays for human A1, A2A, A2B, and A3 receptors were performed according to Alnouri et al.. The following radioligands were employed: [^3H]2-chloro-N^6-cyclopentyladenosine ([^3H]CCPA, 1 nM) for the A1 receptor, [^3H]3-(3-hydroxypropyl)-7-methyl-8-(m-methoxystyryl)-1-propargylxanthine ([^3H]MSX-2, 1 nM) for the A2A receptor, [^3H]8-(4-[4-(4-chlorophenyl)piperazine-1-sulfonyl]phenyl)-1-propyl-2,3,6,7-tetrahydro-1H-purine-2,6-dione ([^3H]PSB-603, 0.3 nM) for the A2B receptor, and [^3H](R)-8-ethyl-4-methyl-2-(phenyl)1,4,7,8-tetrahydro-5H-imidazo[2,1-i]purin-5-one ([^3H]PSB-11, 1 nM) for the A3 receptor. Three separate experiments were performed for determination of Ki values. All data were analyzed with GraphPad Prism, version 4.1 (GraphPad Inc., La Jolla, CA).
# [5] = biological target: T2, human adenosine A2A receptor (Homo sapiens, UniProt P29274); experiment: Competition binding assay, A2A receptor, radioligand [3H]MSX-2; settings: for Ki: human receptor, vs [3H]MSX-2, mean ± SEM of three experiments; for Selectivity Ratio Ki(Ax)/Ki(A2B) A2A/A2B: human receptors
# T2 construct: host or cells: CHO or HEK cells (membrane preparations)
# T2 sequence (P29274 whole entry): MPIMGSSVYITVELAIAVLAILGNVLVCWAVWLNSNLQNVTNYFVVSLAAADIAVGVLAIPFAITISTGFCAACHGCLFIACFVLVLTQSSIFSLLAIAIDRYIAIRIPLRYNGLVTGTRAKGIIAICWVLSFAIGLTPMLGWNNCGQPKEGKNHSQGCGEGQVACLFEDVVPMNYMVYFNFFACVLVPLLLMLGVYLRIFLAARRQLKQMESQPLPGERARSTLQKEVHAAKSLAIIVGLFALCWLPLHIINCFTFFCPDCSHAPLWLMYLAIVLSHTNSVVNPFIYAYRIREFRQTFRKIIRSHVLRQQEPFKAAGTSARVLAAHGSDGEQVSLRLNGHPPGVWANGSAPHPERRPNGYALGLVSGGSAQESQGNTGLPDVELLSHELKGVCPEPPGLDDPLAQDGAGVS
# Protocol: as §1, §2
# [6] = biological target: T3, human adenosine A1 receptor (Homo sapiens, UniProt P30542); experiment: Competition binding assay, A1 receptor, radioligand [3H]CCPA; settings: for Ki: vs [3H]CCPA, mean ± SEM of three experiments; for Selectivity Ratio Ki(Ax)/Ki(A2B) A1/A2B: human receptors
# T3 construct: host or cells: CHO or HEK cells (membrane preparations)
# T3 sequence (P30542 1-326): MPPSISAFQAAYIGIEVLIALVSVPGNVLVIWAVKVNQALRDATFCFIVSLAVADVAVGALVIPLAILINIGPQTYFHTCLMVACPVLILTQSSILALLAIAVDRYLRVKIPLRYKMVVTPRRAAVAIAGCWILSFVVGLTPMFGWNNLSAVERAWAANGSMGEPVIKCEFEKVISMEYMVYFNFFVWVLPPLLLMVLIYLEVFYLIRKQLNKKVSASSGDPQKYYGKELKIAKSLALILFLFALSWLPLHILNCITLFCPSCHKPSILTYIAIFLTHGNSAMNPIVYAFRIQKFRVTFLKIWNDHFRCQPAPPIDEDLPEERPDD
# Protocol: as §1, §2
# [7] = biological target: T4, human adenosine A3 receptor (Homo sapiens, UniProt P0DMS8); experiment: Competition binding assay, A3 receptor, radioligand [3H]PSB-11; settings: for inhibition at 1 µM / Ki: human receptor; for inhibition at 1 µM: at a concentration of 1 µM; for Ki: vs [3H]PSB-11, mean ± SEM of three experiments; for Selectivity Ratio Ki(Ax)/Ki(A2B) A3/A2B: human receptors
# T4 construct: host or cells: CHO or HEK cells (membrane preparations)
# T4 sequence (P0DMS8 1-318): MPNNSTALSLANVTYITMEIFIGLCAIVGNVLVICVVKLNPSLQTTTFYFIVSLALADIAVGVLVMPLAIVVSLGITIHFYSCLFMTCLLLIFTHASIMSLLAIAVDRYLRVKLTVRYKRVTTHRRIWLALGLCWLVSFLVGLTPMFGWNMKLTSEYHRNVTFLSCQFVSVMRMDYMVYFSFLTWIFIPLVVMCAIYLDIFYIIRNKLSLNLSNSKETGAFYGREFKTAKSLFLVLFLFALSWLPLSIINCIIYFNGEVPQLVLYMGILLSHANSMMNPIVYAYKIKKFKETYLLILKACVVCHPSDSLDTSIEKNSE
# Protocol: as §1, §2
# [8] = parameters: method as in PMID 32366046; settings: cited from earlier work
# [9] = test system: adenosine A2A receptor; experiment: Receptor binding with adenosine-receptor-expressing rat brain cortical membranes, A2A; settings: rat A2A versus human A2B, from published Ki values
# [10] = test system: adenosine A1 receptor; experiment: Receptor binding with adenosine-receptor-expressing rat brain cortical membranes, A1; settings: rat A1 versus human A2B, from published Ki values
# [11] = biological target: adenosine A2A receptor; parameters: method as in PMID 19569717, PMID 30835463, PMID 16821798; settings: rat brain cortical membranes; cited from earlier work
# [12] = biological target: adenosine A1 receptor; parameters: method as in PMID 19569717, PMID 30835463, PMID 16821798; settings: rat brain cortical membranes; cited from earlier work
# [13] = biological target: T2, human adenosine A2A receptor; parameters: method as in PMID 19569717, PMID 30835463, PMID 16821798; settings: cited from earlier work
# [14] = biological target: T3, human adenosine A1 receptor; parameters: method as in PMID 19569717, PMID 30835463, PMID 16821798; settings: cited from earlier work
# [15] = biological target: T4, human adenosine A3 receptor; parameters: method as in PMID 19569717, PMID 30835463, PMID 16821798; settings: cited from earlier work; for % Inhibition of Radioligand Binding A3: at a concentration of 1 µM (as headed)
# [16] = biological target: human A2B; settings: determined versus [3H]ZM214385 or [125I]IABOPX; read-out: Ki (human A2B) ± SEM; cited from earlier work
# [17] = Organ distribution of [3H]PSB-603 in mice; assay type: in vivo, CD-1 mice; settings: 3 min p.i.
# Protocol: To estimate the ability of [^3H]PSB-603 to penetrate the BBB in vivo, an initial biodistribution study in healthy CD1 mice was performed.
# All animal studies followed the international guidelines on animal care, and the study protocols were approved by the Landesdirektion Leipzig, the local authority for animal care (Reg.-Nr.: TVV 08/13; Reference number: 24-9168.11/18/8; approval date: 12 June 2013). Animal experiments were performed with female CD-1 mice, 10–12 weeks old, obtained from the Experimental Centre of the Faculty of Medicine (MEZ) at the Leipzig University, Leipzig, Germany.
# [^3H]PSB-603 (specific activity 2.92 TBq/mmol, Pharmaron formerly Quotient Bioresearch (Radiochemicals) Ltd, Cardiff, UK; the precursor was synthesized at the University of Bonn, Germany) was dissolved in 100 µL of sterile isotonic saline and administered as a bolus injection via the tail vein of the restrained animal. At 3 min (n = 3; dose: […]), retro-orbital blood samples were obtained from the anesthetized animals. Immediately afterwards, organs of interest were isolated and blood plasma was obtained by centrifugation of the whole blood sample (15,000 rpm, room temperature, 1 min). All samples were weighed and dissolved in SOLVABLE (PerkinElmer Life and Analytical Sciences, Rodgau, Germany) for 5 h at 50 °C, overnight at 30 °C, and a further 5 h at 50 °C. By adding H2O2, decolorization of the samples was achieved. The samples were left to cool down to room temperature before the addition of 15 mL of Ultima Gold cocktail (PerkinElmer Life and Analytical Sciences, Rodgau, Germany). The samples were shaken overnight, and the radioactivity was measured in a Beckman Liquid Scintillation Counter LS 6500 (Beckman Coulter, Fullerton, CA, USA). For each sample, the percentage of the injected dose was calculated and normalized according to the tissue weight (% ID/g tissue), followed by normalization according to the injected dose and the weight of the animal [(% ID/g tissue)/(100%/g animal)] to calculate the standardized uptake value (SUV) for each tissue.
# [18] = at a concentration of 1 µM (as headed)
molecule,measurement,setting,value
Cn1c(=O)c2[nH]c(-c3cnn(Cc4cccc(C(F)(F)F)c4)c3)nc2n(C)c1=O [CVT-6975],Ki,[1],1 nM
O=C(Nc1cnc(-c2ccnc([18F])c2)c(-c2ccccc2F)n1)C1CC1 [Compound 2],affinity towards the adenosine A2B receptor (in words),[2],good affinity
same,metabolic degradation in vivo (in words),[3]; metabolism studies in mice,rapid metabolic degradation
"CCCn1c(=O)[nH]c2nc(-c3ccc(S(=O)(=O)N4CCC(F)CC4)cc3)[nH]c2c1=O [Compound 6, 8-(4-((4-Fluoropiperidin-1-yl)sulfonyl)phenyl)-1-propyl-3,7-dihydro-1H-purine-2,6-dione]",Ki,[4],12.3 ± 3.6 nM
same,Ki,[5],158 ± 28 nM
same,Selectivity Ratio Ki(Ax)/Ki(A2B) A2A/A2B,[5],13
same,inhibition at 1 µM,"[6]; human receptor, at a concentration of 1 µM",44%
same,Ki,[6]; human receptor,~1000 nM
same,Selectivity Ratio Ki(Ax)/Ki(A2B) A1/A2B,[6],81
same,inhibition at 1 µM,[7],38%
same,Ki,[7],> 1000 nM
same,Selectivity Ratio Ki(Ax)/Ki(A2B) A3/A2B,[7],>81
O=c1[nH]c(=O)c2cc(-c3ccnc([18F])c3)c(-c3ccco3)nc2[nH]1 [Compound 3],affinity towards the A2B receptor (in words),[2],good affinity
same,in vivo stability (in words),[3]; compared to 2,considerably improved in vivo stability
same,brain uptake (in words),[8],rather low
CCCn1c(=O)[nH]c2nc(-c3ccc(S(=O)(=O)N4CCCCC4)cc3)[nH]c2c1=O [Compound 8],Selectivity Ratio Ki(Ax)/Ki(A2B) A3/A2B,[7],7
same,Selectivity Ratio Ki(Ax)/Ki(A2B) A2A/A2B,[9],35
same,Selectivity Ratio Ki(Ax)/Ki(A2B) A1/A2B,[10],4
same,Ki,[11],714 ± 122 nM
same,Ki,[12],91.1 ± 25 nM
"CCCn1c(=O)[nH]c2nc(-c3ccc(S(=O)(=O)Nc4ccnc(F)c4)cc3)[nH]c2c1=O [Compound 5, 4-(2,6-Dioxo-1-propyl-2,3,6,7-tetrahydro-1H-purin-8-yl)-N-(2-fluoropyridin-4-yl)benzenesulfonamide]",Ki,[4],9.97 ± 0.86 nM
same,Ki,[5],375 ± 53 nM
same,Selectivity Ratio Ki(Ax)/Ki(A2B) A2A/A2B,[5],38
same,Ki,[6]; human receptor,255 ± 32 nM
same,Selectivity Ratio Ki(Ax)/Ki(A2B) A1/A2B,[6],25
same,inhibition at 1 µM,[7],45%
same,Ki,[7],~1000 nM
"CCCn1c(=O)[nH]c2nc(-c3ccc(S(=O)(=O)N4CCN(c5ccc(Cl)cc5)CC4)cc3)[nH]c2c1=O [PSB-603, 8-(4-[4-(4-chlorophenyl)piperazine-1-sulfonyl]phenyl)-1-propyl-2,3,6,7-tetrahydro-1H-purine-2,6-dione]",Selectivity Ratio Ki(Ax)/Ki(A2B) A2A/A2B,[5],">18,000"
same,Selectivity Ratio Ki(Ax)/Ki(A2B) A1/A2B,[6],">18,000"
same,Selectivity Ratio Ki(Ax)/Ki(A2B) A3/A2B,[7],">18,000"
same,% Inhibition of Radioligand Binding A2A,[13]; [18],7 ± 14%
same,Ki,[13],> 10000 nM
same,% Inhibition of Radioligand Binding A1,[14]; [18],10 ± 3%
same,Ki,[14],> 10000 nM
same,% Inhibition of Radioligand Binding A3,[15],10 ± 15%
same,Ki,[15],> 10000 nM
CCCn1c(=O)[nH]c2nc(-c3ccc(S(=O)(=O)Nc4ccccc4)cc3)[nH]c2c1=O [Compound 7],Selectivity Ratio Ki(Ax)/Ki(A2B) A3/A2B,[7],>32
same,Selectivity Ratio Ki(Ax)/Ki(A2B) A2A/A2B,[9],0.7
same,Selectivity Ratio Ki(Ax)/Ki(A2B) A1/A2B,[10],0.06
same,% Inhibition of Radioligand Binding A3,[15],48%
same,Ki,[15],> 1000 nM
same,Ki,[11],23 ± 13 nM
same,Ki,[12],1.8 ± 1 nM
[11CH3]n1nc(-c2ccccc2)c(=O)n2c3ccccc3nc12 [Compound 1],IC50,[2],210 ± 12.3 nM
CCCn1c(=O)c2[nH]c(-c3ccc(OCC(=O)Nc4ccc(C#N)cc4)cc3)nc2n(CCC)c1=O [MRS-1754],Ki,[16],1.97 ± 0.31 nM
"[^3H]8-(4-[4-(4-chlorophenyl)piperazine-1-sulfonyl]phenyl)-1-propyl-2,3,6,7-tetrahydro-1H-purine-2,6-dione [[^3H]PSB-603]","uptake in the bladder, appendix, and lung",[17]; mice,low to moderate
same,uptake in the liver,[17]; mice,high
same,uptake in the pituitary gland,[17]; mice,moderate
same,standardized uptake value (SUV) in brain,"[17]; mouse brain, i.v., n = 3",0.21 ± 0.07 and 0.2
